# Reference: US20050288347A1, “Certain triazole-based compounds, compositions, and uses thereof” (priority 2004, published 2005)
# “Also recorded” adds a separate entry of the source.
# Tested on: protein kinase
# Assay: HTS ATP-utilizing enzyme assay, off-chip mobility-shift format (Caliper HTS 250)
# Type: biochemical, human
# Details: test compound 10 μM; active = activity greater than three-sigma from the mean of the predominately inactive population for that enzyme
# Summary of the method: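 Single-point screen at 10 μM compound in HEPES pH 7.5 buffer with Triton X-100 and BSA, 2.5 h at 20–22 °C. Substrate-to-phosphopeptide ratio measured by off-chip microfluidic mobility shift; EDTA wells as 100% and DMSO wells as 0% control, hits called at three-sigma limits.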
row,Structure (SMILES),protein kinase against which the compound exhibits inhibitory activity (Table 3)
1,"COC(=O)c1ccc(CSc2nnc(-c3cccc(C)c3)[nH]2)cc1 [methyl 4-((5-m-tolyl-4H-1,2,4-triazol-3-ylthio)methyl)benzoate]",AURORA-A; also recorded: FLT-3; also recorded: c-TAK1
2,"COC(=O)c1ccc(CSc2nnc(C)[nH]2)cc1 [methyl 4-((5-methyl-4H-1,2,4-triazol-3-ylthio)methyl)benzoate]",DYRK2; also recorded: AURORA-A
